Test system: Mild to Moderate Osteoarthritis of the Knee
Test: Phase 2 study: WOMAC (VAS) pain subscale score, target knee
Format: in vivo, human
Conditions: for WOMAC Pain Subscale Score, Avg.: Avg. of all patients; for WOMAC Pain Subscale Score, Avg. / WOMAC Pain Subscale Score: blinded, High Dose (8 spray/knee, 35 mg/knee) Cohort; for WOMAC Pain Subscale Score, cohort Avg.: low dose cohort 8.75 mg/knee BID, blinded (active + placebo), Day 1 Avg. 59.8; for difference of LS mean (8.75 mg-control), change from baseline in WOMAC pain subscale score / Change from baseline in WOMAC pain subscale score, LS mean (95% ci): Group A, 8.75 mg/knee; for difference of LS mean (8.75 mg-control), change from baseline in WOMAC pain subscale score / difference of LS mean (testing Drug-control), change from baseline in WOMAC pain subscale score: bid vs placebo; for Change from baseline in WOMAC pain subscale score, LS mean (95% ci) / Change from baseline in WOMAC pain subscale score, LS mean: bid; for difference of LS mean (testing Drug-control), change from baseline in WOMAC pain subscale score / Change from baseline in WOMAC pain subscale score, LS mean: Group C, 35 mg/knee; for WOMAC Pain Subscale Score: individual patient
Excerpt: This is a Phase 2, multicenter, randomized, double blind (within dose), placebo controlled, parallel group, proof of concept, and dose range finding study to evaluate the efficacy, safety, and PK of 2-(diethylamino)ethyl 2-(4-isobutylphenyl)propionate hydrochloride spray in adult subjects with clinically symptomatic mild to moderate OA of the knee. For subjects with bilateral knee pain, both knees will be treated, but the most symptomatic knee (i.e., the most painful knee as measured by the Western Ontario and McMaster University Osteoarthritis Index [WOMAC® 3.1] pain subscale score at Screening) will be designated as the target knee for efficacy analyses. For subjects with unilateral knee pain, only the symptomatic (target) knee will be treated.
After a Screening Period of up to 3 weeks and radiographic evaluation of the target knee joint space, a subject will be randomly assigned to 1 of 3 treatment groups in a 1:1:1 ratio with a 2:1 ratio of active:placebo within each treatment group (ie, 2 subjects to active treatment and 1 subject to placebo): • Group A: 8.75 mg 2-(diethylamino)ethyl 2-(4-isobutylphenyl)propionate/knee (2 sprays/knee, one spray to the medial surface and one spray to the lateral surface of the knee), twice daily (BID, approximately every 12 hours; n=50) or placebo (2 sprays/knee), BID (approximately every 12 hours; n=25) for a total of 4 sprays per knee per day; • Group B: 17.5 mg 2-(diethylamino)ethyl 2-(4-isobutylphenyl)propionate/knee (4 sprays/knee, one spray to the medial surface and one spray to the lateral surface of the knee, and one spray to front and one spray to the back of the knee), BID (approximately every 12 hours; n=50) or placebo (4 sprays/knee), BID (approximately every 12 hours; n=25) for a total of 8 sprays per knee per day; • Group C: 35 mg 2-(diethylamino)ethyl 2-(4-isobutylphenyl)propionate/knee (8 sprays/knee, each spray is to be applied to a different non-overlapping area around the knee, and the areas are to be uniformly distributed around the knee), BID (approximately every 12 hours; n=50) or placebo (8 sprays/knee), BID (approximately every 12 hours; n=25) for a total of 16 sprays per knee per day.
The VAS version of the WOMAC will be used for the Primary and Secondary Efficacy Endpoints. Efficacy endpoints will be assessed at Screening and Baseline (Day 1) and at the Week 2, Week 4, Week 8, and Week 12/EOS visits.
The Primary Efficacy Endpoint is the change from Baseline in the WOMAC (VAS) pain subscale score for the target knee at […] of treatment.
3.9.2. Secondary Efficacy Endpoints: • 1. Change from Baseline in the WOMAC (VAS) pain subscale score for the target knee at 2, 4, and 8 weeks of treatment; • 2. Change from Baseline in the WOMAC (VAS) stiffness subscale scores for the target knee and WOMAC (VAS) functional ability subscale scores at 2, 4, 8, and 12 weeks of treatment; • 3. Change from Baseline in the overall WOMAC (VAS) score at 2, 4, 8, and 12 weeks of treatment.
The Primary Efficacy Endpoint is change from Baseline in the WOMAC (VAS) pain subscale score for the target knee at 4 weeks of treatment, and will be analyzed using an analysis of covariance (ANCOVA). Treatment will be included as a fixed class effect and WOMAC Baseline pain subscale score as covariates. The primary comparisons of interest will be the difference between active Group A (8.75 mg 2-(diethylamino)ethyl 2-(4-isobutylphenyl)propionate/knee) and combined placebo, active Group B (17.5 mg 2-(diethylamino)ethyl 2-(4-isobutylphenyl)propionate/knee) and combined placebo, and active Group C (35 mg 2-(diethylamino)ethyl 2-(4-isobutylphenyl)propionate/knee) and combined placebo. […]

CCN(CC)CCOC(=O)C(C)c1ccc(CC(C)C)cc1 (stereo not drawn) [2-(diethylamino)ethyl 2-(4-isobutylphenyl)propionate]
reduction of pain WOMAC from baseline to week 12 (5 patients on second batch active drug kits): 81-98% | WOMAC Pain Subscale Score, Avg. (Day 1): 59.2 | WOMAC Pain Subscale Score, Avg. (Follow-up): 35.2 | WOMAC Pain Subscale Score, Avg. (Week 2): 46.6 | WOMAC Pain Subscale Score, Avg. (Week 4): 41.5 | WOMAC Pain Subscale Score, Avg. (Week 8): 37.0 | WOMAC Pain Subscale Score, Avg. (Week 12): 33.8 | WOMAC Pain Subscale Score, cohort Avg. (Follow-up): 39.7 | difference of LS mean (8.75 mg-control), change from baseline in WOMAC pain subscale score (Week 2): 6.7 mm | difference of LS mean (8.75 mg-control), change from baseline in WOMAC pain subscale score (Week 4): 10.5 mm | difference of LS mean (8.75 mg-control), change from baseline in WOMAC pain subscale score (Week 8): 7.9 mm | difference of LS mean (8.75 mg-control), change from baseline in WOMAC pain subscale score (Week 12/EOS): 8.6 mm | Change from baseline in WOMAC pain subscale score, LS mean (95% ci) (Week 2): −7.5 (−13.3, −1.7) mm | Change from baseline in WOMAC pain subscale score, LS mean (95% ci) (Week 4): −10.6 (−17.1, −4.1) mm | Change from baseline in WOMAC pain subscale score, LS mean (95% ci) (Week 8): −15.7 (−22.5, −8.8) mm | Change from baseline in WOMAC pain subscale score, LS mean (95% ci) (Week 12/EOS): −16.1 (−23.6, −8.6) mm | difference of LS mean (testing Drug-control), change from baseline in WOMAC pain subscale score (Week 2): −11.5 mm | difference of LS mean (testing Drug-control), change from baseline in WOMAC pain subscale score (Week 4): −12.8 mm | difference of LS mean (testing Drug-control), change from baseline in WOMAC pain subscale score (Week 8): −6.0 mm | difference of LS mean (testing Drug-control), change from baseline in WOMAC pain subscale score (Week 12/EOS): −4.1 mm | Change from baseline in WOMAC pain subscale score, LS mean (Week 2): −15.6 mm | Change from baseline in WOMAC pain subscale score, LS mean (Week 4): −21.2 mm | Change from baseline in WOMAC pain subscale score, LS mean (Week 8): −24.0 mm | Change from baseline in WOMAC pain subscale score, LS mean (Week 12/EOS): −26.9 mm | WOMAC Pain Subscale, WOMAC VAS Score (Patient 1056, second batch active drug kits, Day 1): 51.8 mm | WOMAC Pain Subscale, WOMAC VAS Score (Patient 1056, second batch active drug kits, Follow Up): 10.0 mm | WOMAC Pain Subscale, WOMAC VAS Score (Patient 1056, second batch active drug kits, Week 2): 31.0 mm | WOMAC Pain Subscale, WOMAC VAS Score (Patient 1056, second batch active drug kits, Week 4): 22.6 mm | WOMAC Pain Subscale, WOMAC VAS Score (Patient 1056, second batch active drug kits, Week 8): 28.0 mm | WOMAC Pain Subscale, WOMAC VAS Score (Patient 1056, second batch active drug kits, Week 12): 12.0 mm | WOMAC Pain Subscale, WOMAC VAS Score (Patient 1064, second batch active drug kits, Day 1): 32.6 mm | WOMAC Pain Subscale, WOMAC VAS Score (Patient 1064, second batch active drug kits, Follow Up): 1.6 mm | WOMAC Pain Subscale, WOMAC VAS Score (Patient 1064, second batch active drug kits, Week 2): 21.6 mm | WOMAC Pain Subscale, WOMAC VAS Score (Patient 1064, second batch active drug kits, Week 4): 1.8 mm | WOMAC Pain Subscale, WOMAC VAS Score (Patient 1064, second batch active drug kits, Week 8): 1.0 mm | WOMAC Pain Subscale, WOMAC VAS Score (Patient 1064, second batch active drug kits, Week 12): 0 mm | WOMAC Pain Subscale, WOMAC VAS Score (Patient 1535, second batch active drug kits, Day 1): 40.4 mm | WOMAC Pain Subscale, WOMAC VAS Score (Patient 1535, second batch active drug kits, Follow Up): 0.0 mm | WOMAC Pain Subscale, WOMAC VAS Score (Patient 1535, second batch active drug kits, Week 2): 2.8 mm | WOMAC Pain Subscale, WOMAC VAS Score (Patient 1535, second batch active drug kits, Week 4): 2.6 mm | WOMAC Pain Subscale, WOMAC VAS Score (Patient 1535, second batch active drug kits, Week 8): 4.0 mm | WOMAC Pain Subscale, WOMAC VAS Score (Patient 1535, second batch active drug kits, Week 12): 0.6 mm | WOMAC Pain Subscale, WOMAC VAS Score (Patient 1539, second batch active drug kits, Day 1): 63.0 mm | WOMAC Pain Subscale, WOMAC VAS Score (Patient 1539, second batch active drug kits, Follow Up): 5.0 mm | WOMAC Pain Subscale, WOMAC VAS Score (Patient 1539, second batch active drug kits, Week 2): 47.6 mm | WOMAC Pain Subscale, WOMAC VAS Score (Patient 1539, second batch active drug kits, Week 4): 48.2 mm | WOMAC Pain Subscale, WOMAC VAS Score (Patient 1539, second batch active drug kits, Week 8): 1.8 mm | WOMAC Pain Subscale, WOMAC VAS Score (Patient 1539, second batch active drug kits, Week 12): 9.4 mm | WOMAC Pain Subscale, WOMAC VAS Score (Patient 9032, second batch active drug kits, Day 1): 16.6 mm | WOMAC Pain Subscale, WOMAC VAS Score (Patient 9032, second batch active drug kits, Follow Up): 3.0 mm | WOMAC Pain Subscale, WOMAC VAS Score (Patient 9032, second batch active drug kits, Week 2): 11.2 mm | WOMAC Pain Subscale, WOMAC VAS Score (Patient 9032, second batch active drug kits, Week 4): 6.2 mm | WOMAC Pain Subscale, WOMAC VAS Score (Patient 9032, second batch active drug kits, Week 8): 4.4 mm | WOMAC Pain Subscale, WOMAC VAS Score (Patient 9032, second batch active drug kits, Week 12): 3.2 mm | WOMAC Pain Subscale Score, cohort Avg. (Week 2): 48.6 | WOMAC Pain Subscale Score, cohort Avg. (Week 4): 42.8 | WOMAC Pain Subscale Score, cohort Avg. (Week 8): 38.4 | WOMAC Pain Subscale Score, cohort Avg. (Week 12): 38.2 | WOMAC Pain Subscale Score (Day 1): 59.4 | WOMAC Pain Subscale Score (Follow-up): 67.0
